Key:
Assay type in all cases: in vivo, red seabream Pagrus major
red seabream = assay: Oxidation-reduction potential (ORP) in white muscle; settings: 2 weeks; 1 or 2 ppm in diet
Method: ORP was measured with ORP electrode (9300, Horiba, Kyoto, […]). The electrode was pierced into muscle and pressed gently until the potential stabilized for 60 s.

[1] = Selenoneine concentration in white muscle and blood cell by HPLC-ICP-MS (82Se); settings: fish cultured for 4 weeks
Method: (§1) Red seabream fry (average body weight of 5.4 g) was obtained from private seed and seedling production company (Oita, Japan) and cultured for seven months up to average body weight of 250 g. Chemical composition of control diet was containing crude protein 50%; […]; Ca 2.3%; ash 16.0%; and phosphorus 1.5%. Each selenium-added diet was fed twice a day for 4 weeks in an amount of 1% of the average body weight. Body weight of fish in each tank was measured when fish were sampled and amount of diet was calculated according to the body weight of every sampling day. The added selenium concentrations in the diets were set in 0 ppm, 1 ppm, and 2 ppm selenium according to the previous study (Tohfuku et al. [2021]). After that, they were fed a commercial diet twice a day for 1 week. The test groups were the control group, the sodium selenite group (1 mg Se/kg feeding group and 2 mg Se/kg feeding group), the selenomethionine group (1 mg Se/kg feeding group and 2 mg Se/kg feeding group), and the selenoneine group (1 mg Se/kg feeding group and 2 mg Se/kg feeding group) were set. The number of fish raised was 15 from the start of rearing in each tank until the 2nd week, 10 from the 3rd to 4th week, and 5 in the 5th week. […] We reared red seabream by feeding of 1% dry pellet containing of sodium selenite, selenomethionine, or selenoneine of body weight twice a day for 4 weeks. After that, we replaced to 1% of commercial dry pellet of body weight twice a day for 1 week from the selenium supplementation. Average water temperature was 20.9 ℃ (19.0–23.9 ℃) and average dissolved oxygen was 7.41 mg/L. The body weight change of red seabream for 5 weeks is shown in Table S2.
(§2) Red seabream was anesthetized by adding 2 mL of anesthetic (1/100 volume of 2-methylquinoline dissolved in ethanol) to 1 L of seawater. A small amount of an anticoagulant (heparin sodium dissolved in physiological saline; 800 units/mL) was placed in a syringe in advance, and blood was collected from the caudal peduncle of each fish. The collected blood was centrifuged at 5000 rpm for 5 min (4 °C), divided into a plasma fraction and a precipitated fraction, and stored at − 50 °C. The precipitated fraction was used for analysis as the blood cell fraction.
Selenoneine was separated by chromatography using a Shodex GF-310 column (4.5 mm × 150 mm; Showa Denko, Tokyo, Japan) equilibrated with 100 mM ammonium formate buffer containing 0.1% (w/v) Igepal CA-630 (MP Biomedicals, CA, USA). The injection volume was at 10 μL. The mobile phase delivered at 0.5 mL/min isocratically. ^82Se was detected with high performance liquid chromatography inductively coupled plasma mass spectrometry (HPLC-ICP-MS; Agilent 1100 Series and Agilent 7500 Series, Agilent Technology) (Yamashita and Yamashita [2010]). During separation, selenoneine was eluted at a retention time of 200 s, and the selenium concentration was determined using selenoneine as a standard.

[2] = Total selenium concentrations in the tissues of red seabream after feeding selenium-supplemented dry pellet (fluorometric assay with 2,3-diamino-naphthalene)
Method: as §1, §2
Total selenium concentration was determined by fluorometric assay with 2,3-diamino-naphthalene, after digestion in 1.5 mL of nitric acid and perchloric acid (1:2 in volume) at 200–220 ℃ (Watkinson [1966]; Yamashita and Yamashita [2010]).

[3] = 5 weeks (4 weeks supplementation, then 1 week commercial diet), diet 1 mg Se/kg added
[4] = 5 weeks (4 weeks supplementation, then 1 week commercial diet), diet 2 mg Se/kg added

## C[Se]CC[C@H](N)C(=O)O [Selenomethionine, Seleno-L-methionine]
Red seabream
  ORP in white muscle compared to control: reduced ORP

## O=[Se]([O-])[O-].[Na+].[Na+] [Sodium selenite, reference compound]
[1]; diet 1 mg Se/kg added
  Selenoneine concentration, blood cell: 1.98 ± 0.39 mg Se/kg
  Selenoneine concentration, white muscle: 0.019 ± 0.002 mg Se/kg
[1]; diet 2 mg Se/kg added
  Selenoneine concentration, blood cell: 1.91 ± 0.43 mg Se/kg
  Selenoneine concentration, white muscle: 0.020 ± 0.003 mg Se/kg
Red seabream
  ORP in white muscle compared to control: reduced ORP
[2]; 2 weeks, diet 1 mg Se/kg added
  Total selenium content, blood cell: 2.44 ± 0.27 mg Se/kg
  Total selenium content, brain: 0.49 ± 0.03 mg Se/kg
  Total selenium content, heart: 1.05 ± 0.20 mg Se/kg
  Total selenium content, hepatopancreas: 1.12 ± 0.16 mg Se/kg
  Total selenium content, kidney: 2.46 ± 0.31 mg Se/kg
  Total selenium content, spleen: 2.58 ± 0.16 mg Se/kg
  Total selenium content, white muscle: 0.39 ± 0.02 mg Se/kg
[2]; 2 weeks, diet 2 mg Se/kg added
  Total selenium content, blood cell: 2.49 ± 0.29 mg Se/kg
  Total selenium content, brain: 0.50 ± 0.03 mg Se/kg
  Total selenium content, heart: 0.99 ± 0.10 mg Se/kg
  Total selenium content, hepatopancreas: 1.31 ± 0.15 mg Se/kg
  Total selenium content, kidney: 2.50 ± 0.19 mg Se/kg
  Total selenium content, spleen: 2.80 ± 0.25 mg Se/kg
  Total selenium content, white muscle: 0.40 ± 0.02 mg Se/kg
[2]; 4 weeks, diet 1 mg Se/kg added
  Total selenium content, blood cell: 3.11 ± 0.40 mg Se/kg
  Total selenium content, brain: 0.54 ± 0.07 mg Se/kg
  Total selenium content, heart: 1.27 ± 0.11 mg Se/kg
  Total selenium content, hepatopancreas: 1.40 ± 0.19 mg Se/kg
  Total selenium content, kidney: 3.07 ± 0.24 mg Se/kg
  Total selenium content, spleen: 3.09 ± 0.47 mg Se/kg
  Total selenium content, white muscle: 0.39 ± 0.01 mg Se/kg
[2]; 4 weeks, diet 2 mg Se/kg added
  Total selenium content, blood cell: 2.86 ± 0.17 mg Se/kg
  Total selenium content, brain: 0.45 ± 0.10 mg Se/kg
  Total selenium content, heart: 1.22 ± 0.08 mg Se/kg
  Total selenium content, hepatopancreas: 1.45 ± 0.13 mg Se/kg
  Total selenium content, kidney: 3.06 ± 0.34 mg Se/kg
  Total selenium content, spleen: 2.94 ± 0.22 mg Se/kg
  Total selenium content, white muscle: 0.39 ± 0.03 mg Se/kg
[2]; [3]
  Total selenium content, blood cell: 3.18 ± 0.76 mg Se/kg
  Total selenium content, brain: 0.35 ± 0.09 mg Se/kg
  Total selenium content, heart: 1.20 ± 0.09 mg Se/kg
  Total selenium content, hepatopancreas: 1.31 ± 0.23 mg Se/kg
  Total selenium content, kidney: 2.60 ± 0.32 mg Se/kg
  Total selenium content, spleen: 2.80 ± 0.28 mg Se/kg
  Total selenium content, white muscle: 0.38 ± 0.06 mg Se/kg
[2]; [4]
  Total selenium content, blood cell: 3.13 ± 0.48 mg Se/kg
  Total selenium content, brain: 0.33 ± 0.11 mg Se/kg
  Total selenium content, heart: 1.04 ± 0.07 mg Se/kg
  Total selenium content, hepatopancreas: 1.28 ± 0.18 mg Se/kg
  Total selenium content, kidney: 2.71 ± 0.39 mg Se/kg
  Total selenium content, spleen: 2.47 ± 0.35 mg Se/kg
  Total selenium content, white muscle: 0.36 ± 0.05 mg Se/kg
[2]; diet 1 mg Se/kg and 2 mg Se/kg
  Tissues in which total selenium was accumulated compared with the control group: white muscle, kidney, and hepatopancreas
